Some results are limits rather than exact numbers.

Chain of P70S6K (P23443 1-421 T412E): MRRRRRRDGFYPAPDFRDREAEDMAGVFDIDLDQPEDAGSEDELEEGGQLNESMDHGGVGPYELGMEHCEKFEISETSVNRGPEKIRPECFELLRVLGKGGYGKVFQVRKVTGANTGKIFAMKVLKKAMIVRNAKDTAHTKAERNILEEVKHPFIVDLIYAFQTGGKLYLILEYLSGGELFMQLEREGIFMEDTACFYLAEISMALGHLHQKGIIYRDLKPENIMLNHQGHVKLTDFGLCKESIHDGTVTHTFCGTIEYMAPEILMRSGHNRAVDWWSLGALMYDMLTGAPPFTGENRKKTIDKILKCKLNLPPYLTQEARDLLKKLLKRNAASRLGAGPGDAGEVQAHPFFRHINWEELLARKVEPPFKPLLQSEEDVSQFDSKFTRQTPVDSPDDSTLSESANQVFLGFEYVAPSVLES

The target in the assay is P70S6K (Homo sapiens (Human), UniProt P23443, T412E). Kind of assay: P70S6K Enzyme Assay. It counts as biochemical. As to conditions: P70S6K T412E mutant, 24 μM ATP, mobility shift (Caliper). The procedure:
P70S6K inhibitor compounds are diluted and plated in 96 well plates. […] The reaction is incubated for 90 min at 25° C., before the addition of 10 mM EDTA to stop the reaction. The proportion of substrate and product (phosphorylated) peptide is analysed on a Caliper Life Sciences Lab Chip 3000, using a pressure of −1.4 psi, and upstream and downstream voltages of −3000 and −700 respectively. Product peaks are resolved before substrate peaks on the resulting chromatograms.
As for `NC(=O)c1ccc(N2CCC(N)(C(=O)Nc3ccccc3)C2)c2cncnc12` (racemic) [Example 15, 5-(3-amino-3-(phenylcarbamoyl)pyrrolidin-1-yl)quinazoline-8-carboxamide], the IC50 was determined as 2300 nM. The same measure for `NC(=O)c1ccc(N2CCC(NC(=O)Cc3ccc(F)cc3)C2)c2cncnc12` (racemic) [Example 51, 5-(3-(2-(4-fluorophenyl)acetamido)pyrrolidin-1-yl)quinazoline-8-carboxamide]: 5400 nM; for `NC(=O)c1ccc(N2CC[C@@H](CNC(=O)c3ccc(F)c(F)c3)C2)c2cncnc12` (single isomer, unassigned) [Example 115]: 450 nM; for `NC(=O)c1ccc(NCc2ccccc2)c2cccnc12` [Example 42, 5-(Benzylamino)quinoline-8-carboxamide]: 680 nM. Take `NCC(c1ccc(C(F)(F)F)cc1)N1CCN(c2ccc(C(N)=O)c3ncncc23)CC1` (racemic) [Example 8, 5-(4-(2-amino-1-(4-(trifluoromethyl)phenyl)ethyl)piperazin-1-yl)quinazoline-8-carboxamide]: the IC50 came out at 210 nM. The same measure for `NC(=O)c1ccc(N2CCC(CNC(=O)Cc3ccccc3)C2)c2cncnc12` (centres unmarked) [Example 118]: 260 nM; for `NC(=O)c1ccc(N2CCNC(c3ccccc3)C2)c2cccnc12` (racemic) [Example 18, 5-(3-phenylpiperazin-1-yl)quinoline-8-carboxamide]: 670 nM. The same measure for `NC(=O)c1ccc(NC2CNC[C@@H]2c2ccc(OC(F)(F)F)cc2)c2cncnc12` (mixture of isomers) [Example 1, 5-((4-(4-(trifluoromethoxy)phenyl)pyrrolidin-3-yl)amino)quinazoline-8-carboxamide]: 23 nM. The same measure for `NC(=O)c1ccc(NCc2cc(F)c(F)c(F)c2)c2cccnc12` [Example 36, 5-(3,4,5-trifluorobenzylamino)-quinoline-8-carboxamide]: > 1000 nM; for `NC(=O)c1ccc(NCC2(C(=O)Nc3ccccc3)CCNC2)c2cccnc12` (racemic) [Example 20, 5-(((3-(phenylcarbamoyl)pyrrolidin-3-yl)methyl)amino)quinoline-8-carboxamide]: > 1000 nM.

With `NC(=O)c1ccc(N2CCC(c3ccccc3)C(N)C2)c2cncnc12` (racemic) [Example 82, 5-(3-amino-4-phenylpiperidin-1-yl)quinazoline-8-carboxamide], the IC50 turned out to be 120 nM. For `NC(=O)c1ccc(N2CCN(c3ccccc3F)CC2)c2cncnc12` [Example 121, 5-[4-(2-fluorophenyl)-piperazin-1-yl]-quinazoline-8-carboxylic acid amide] the value was 12000 nM; for `NC(=O)c1ccc(N2CC[C@](N)(C(=O)Nc3ccc(F)c(C(F)(F)F)c3)C2)c2cncnc12` (single isomer, unassigned) [Example 117], 380 nM; for `NC(=O)c1ccc(N2CC[C@H](c3cccc(F)c3)[C@@H](N)C2)c2cncnc12` (racemic) [Example 89, 5-[(3R,4R)-3-Amino-4-(3-fluoro-phenyl)-piperidin-1-yl]-quinazoline-8-carboxylic acid amide], 2400 nM. For `NC(=O)c1ccc(N2CCC(N)(CNC(=O)c3ccc(F)cc3O)C2)c2cncnc12` (racemic) [Example 10, 5-(3-amino-3-((4-fluoro-2-hydroxybenzamido)methyl)pyrrolidin-1-yl)quinazoline-8-carboxamide] the value was > 1000 nM.

As to `NC(=O)c1ccc(NC2(c3ccccc3)CNC2)c2cccnc12` [Example 19, 5-((3-phenylazetidin-3-yl)amino)quinoline-8-carboxamide], the IC50 is > 1000 nM.

For `NC(=O)c1ccc(NC2CNC[C@@H]2C(=O)Nc2cccc(F)c2)c2cncnc12` (mixture of isomers) [Example 13, 5-((-4-((3-fluorophenyl)carbamoyl)pyrrolidin-3-yl)amino)quinazoline-8-carboxamide], the concentration for half-maximal inhibition (IC50) came to 290 nM. For `NC(=O)c1ccc(N2CC[C@H](c3ccc(F)cc3)[C@H](N)C2)c2cncnc12` (racemic) [Example 86, 5-[(3S,4R)-3-Amino-4-(4-fluoro-phenyl)-piperidin-1-yl]-quinazoline-8-carboxylic acid amide] the value was 250 nM.

Turning to `NC(=O)c1ccc(N2CC[C@](N)(C(=O)Nc3ccccc3)C2)c2cncnc12` (single isomer, unassigned) [Example 85], the IC50 was found to be 11500 nM. For `NC(=O)c1ccc(N2CC[C@@](N)(C(=O)Nc3ccc(F)c(C(F)(F)F)c3)C2)c2cncnc12` (single isomer, unassigned) [Example 116] the value was 520 nM; for `NC(=O)c1ccc(NCC2(C(=O)Nc3ccccc3)CCNCC2)c2cncnc12` [Example 14, 5-(((4-(phenylcarbamoyl)piperidin-4-yl)methyl)amino)quinazoline-8-carboxamide], > 1000 nM; for `NC(=O)c1ccc(N[C@@H]2CNC[C@@H]2c2cccc(OC(F)(F)F)c2)c2cccnc12` (racemic) [Example 24, 5-((-4-(3-(trifluoromethoxy)phenyl)pyrrolidin-3-yl)amino)quinoline-8-carboxamide], 23 nM. Consider `NC(=O)c1ccc(NC2CNCCC2c2ccc(C(F)(F)F)c(F)c2)c2cncnc12` (single isomer, unassigned) [Example 5], for which the half-inhibitory concentration (IC50) was found to be 9.9 nM. For `NC(=O)c1ccc(N2CCC(N)(C(=O)Nc3ccc(F)cc3)C2)c2cncnc12` (racemic) [Example 43, 5-[3-amino-3-[(4-fluorophenyl)carbamoyl]pyrrolidin-1-yl]quinazoline-8-carboxamide], the IC50 was found to be 1200 nM. For the compound `NC(=O)c1ccc(NCc2ccc(F)c(C(F)(F)F)c2)c2cccnc12` [Example 37, 5-(4-Fluoro-3-trifluoromethylbenzylamino)-quinoline-8-carboxamide], the IC50 is 695 nM. For `NC(=O)c1ccc(N2CCC(N)(C(=O)Nc3cccc(F)c3)C2)c2cncnc12` (racemic) [Example 45, 5-(3-amino-3-((3-fluorophenyl)carbamoyl)pyrrolidin-1-yl)quinazoline-8-carboxamide] the value was 2000 nM; for `NC(=O)c1ccc(NC(=O)C2C[C@@H](c3ccccc3)CN2)c2cccnc12` (stereo partly drawn) [Example 28, 5-((4S)-4-phenylpyrrolidine-2-carboxamido)quinoline-8-carboxamide], 578 nM; for `NC(=O)c1ccc(NC2CNC[C@@H]2c2cccc(OC(F)(F)F)c2)c2cccnc12` (mixture of isomers) [Example 21, 5-((-4-(3-(trifluoromethoxy)phenyl)pyrrolidin-3-yl)amino)quinoline-8-carboxamide], 22 nM. For `NC(=O)c1ccc(NC2CNCC[C@@H]2c2cccc(F)c2)c2cccnc12` (mixture of isomers) [Example 25, 5-((4-(3-fluorophenyl)piperidin-3-yl)amino)quinoline-8-carboxamide] the value was 520 nM; for `NC(=O)c1ccc(NCCCc2ccccc2)c2cccnc12` [Example 41, 5-(Phenylpropylamino)-quinoline-8-carboxamide], > 1000 nM; for `NC(=O)c1ccc(N[C@@H]2CNCC[C@H]2c2ccc(C(F)(F)F)c(F)c2)c2cncnc12` (single isomer, unassigned) [Example 6], 54 nM.

As for `NC(=O)c1ccc(N2CCC(CNC(=O)c3ccc(F)cc3F)C2)c2cncnc12` (racemic) [Example 112, 5-{3-[(2,4-Difluoro-benzoylamino)-methyl]-pyrrolidin-1-yl}-quinazoline-8-carboxylic acid amide], the IC50 was 260 nM. `NCC1(C(=O)Nc2ccccc2)CCCN(c2ccc(C(N)=O)c3ncncc23)C1` (racemic) [Example 11, 5-(3-(aminomethyl)-3-(phenylcarbamoyl)piperidin-1-yl)quinazoline-8-carboxamide]: the IC50 is > 1000 nM. The same measure for `CN(C)CCN(Cc1ccccc1)C(=O)C1CCN(c2ccc(C(N)=O)c3ncncc23)C1` (racemic) [Example 49, 5-(3-(benzyl(2-(dimethylamino)ethyl)carbamoyl)pyrrolidin-1-yl)quinazoline-8-carboxamide]: 1600 nM.

In the case of `NC(=O)c1ccc(NCc2ccc(F)c(F)c2)c2cccnc12` [Example 35, 5-(3,4-Difluorobenzylamino)-quinoline-8-carboxamide], the IC50 was > 1000 nM. The same measure for `CNC[C@@H](Nc1ccc(C(N)=O)c2ncccc12)c1cccc(F)c1` [Example 16, (S)-5-((1-(3-fluorophenyl)-2-(methylamino)ethyl)amino)quinoline-8-carboxamide]: > 1000 nM. The same measure for `NC(=O)c1ccc(N2CCC(N)(CNC(=O)c3ccc(F)cc3F)C2)c2cncnc12` (racemic) [Example 9, 5-(3-amino-3-((2,4-difluorobenzamido)methyl)pyrrolidin-1-yl)quinazoline-8-carboxamide]: > 1000 nM; for `NC(=O)c1ccc(NC2CNCCC2c2ccccc2)c2cncnc12` (racemic) [Example 3, 5-((4-phenylpiperidin-3-yl)amino)quinazoline-8-carboxamide]: 4.1 nM; for `NC(=O)c1ccc(N2CCC(N)(C(=O)Nc3ccc(F)c(F)c3)C2)c2cncnc12` (racemic) [Example 44, 5-(3-amino-3-((3,4-difluorophenyl)carbamoyl)pyrrolidin-1-yl)quinazoline-8-carboxamide]: 1300 nM. The same measure for `NC(=O)c1ccc(NCc2ccccc2F)c2cccnc12` [Example 32, 5-(2-Fluorobenzylamino)-quinoline-8-carboxamide]: > 1000 nM. `NC(=O)c1ccc(NC2CNC[C@@H]2c2cc(F)cc(Cl)c2)c2cncnc12` (mixture of isomers) [Example 2, 5-((4-(3-chloro-5-fluorophenyl)pyrrolidin-3-yl)amino)quinazoline-8-carboxamide]: the IC50 is 160 nM.

The record behind these values is US9139568B2 (Merck Patent GmbH, priority 2011, dated 2015).
